From patent US8247377B2, “Non-steroidal glucocorticoid inhibitors and their use in treating inflammation, allergy and auto-immune conditions” (Glaxo Group Limited, priority 2006, dated 2012)

What was measured:
progesterone receptor = target: T1, progesterone receptor (Homo sapiens, UniProt P06401); experiment: Assay for progesterone receptor activity (CV-1 cells, PRb-BacMam/MMTV-BacMam); format: cell-based; settings: CV-1 cells transduced with PRb-BacMam and MMTV-BacMam; read-out: pEC50 progesterone receptor activity (converted)
T1 construct: expressed in transfected cells; host or cells: CV-1 cells transduced with PRb-BacMam and MMTV-BacMam
T1 sequence (P06401 1-933): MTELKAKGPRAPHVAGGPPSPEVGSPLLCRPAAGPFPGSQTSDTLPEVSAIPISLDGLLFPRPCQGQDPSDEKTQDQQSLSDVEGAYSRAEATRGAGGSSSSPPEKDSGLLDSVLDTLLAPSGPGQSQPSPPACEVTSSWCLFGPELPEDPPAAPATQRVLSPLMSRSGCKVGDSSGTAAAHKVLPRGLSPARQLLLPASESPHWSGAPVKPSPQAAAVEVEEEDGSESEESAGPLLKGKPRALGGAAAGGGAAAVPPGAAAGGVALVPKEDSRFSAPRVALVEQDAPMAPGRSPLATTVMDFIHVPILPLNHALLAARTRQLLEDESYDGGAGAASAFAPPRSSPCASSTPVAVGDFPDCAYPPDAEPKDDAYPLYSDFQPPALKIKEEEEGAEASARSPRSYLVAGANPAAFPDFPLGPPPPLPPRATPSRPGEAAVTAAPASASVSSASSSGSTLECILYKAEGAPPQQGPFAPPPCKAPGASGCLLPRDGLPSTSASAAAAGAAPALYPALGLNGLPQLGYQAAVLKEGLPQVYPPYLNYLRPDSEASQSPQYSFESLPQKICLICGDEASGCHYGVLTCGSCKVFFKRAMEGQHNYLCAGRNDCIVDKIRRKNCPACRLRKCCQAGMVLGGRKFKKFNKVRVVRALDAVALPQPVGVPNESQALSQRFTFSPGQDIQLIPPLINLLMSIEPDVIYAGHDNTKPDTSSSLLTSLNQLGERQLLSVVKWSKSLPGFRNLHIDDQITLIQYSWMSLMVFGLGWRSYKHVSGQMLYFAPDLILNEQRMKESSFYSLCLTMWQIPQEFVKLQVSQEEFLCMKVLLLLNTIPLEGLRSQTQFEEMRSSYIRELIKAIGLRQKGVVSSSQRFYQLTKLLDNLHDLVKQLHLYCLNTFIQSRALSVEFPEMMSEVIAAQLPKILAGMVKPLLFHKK
Procedure: A T225 flask of CV-1 cells at a density of 80% confluency was washed with PBS, detached from the flask using 0.25% trypsin and counted using a Sysmex KX-21N. Cells were diluted in DMEM containing 10% Hyclone, 2 mM L-Glutamate and 1% Pen/Strep at 140 cells/μl and transduced with 10% PRb-BacMam and 10% MMTV-BacMam. […] of suspension cells were dispensed to each well of white Nunc 384-well plates, containing compounds at the required concentration. After 24 h 10 μl of Steadylite were added to each well of the plates. Plates were incubated in the dark for 10 min before reading them on a Viewlux reader. Dose response curves were constructed from which pEC50 values were estimated.

NFκB = NFκB agonist assay in A549 SPAP cells; format: cell-based; settings: Homo sapiens; A549 SPAP cells, TNFα 3.2 ng/ml; read-out: pIC50 for the NFkB assay (converted)
Excerpt: Human lung carcinoma A549 cell line (ECACC No. 86012804) has been stably transfected in house with a plasmid containing an ELAM promoter sequence that has a NFκB response element within it. Stimulation of the cell line with TNFα results in intracellular signal transduction and ultimately translocation of NFκB into the nucleus. This activates the inserted DNA sequence resulting in transcription of the integrated SPAP gene, which is quantified using a colorimetric assay. […] The stably transfected cell line was grown as a monolayer in DMEM supplemented with FCS-HI (10%), Non-essential amino acids (1%), L-Glutamine (2 mM), Pen/Strep (1%) and Geneticin (50 mg/ml).
A 70% confluent T225 flask of A549 SPAP cells was harvested by centrifugation for 5 min at 200 g, resuspended in assay buffer (DMEM supplemented with 10% FCS 2×HI, 2 mM L-Glutamine, 1% Pen/Strep and Non essential amino acids) and diluted to 0.16×10^6/ml. 60 μl of cell solution was dispensed to each well of clear Nunc 384-well plates, containing compound at the required concentration. Plates were incubated for 1 h at 37° C., 95% humidity, 5% CO2 before 10 μl of TNFα was added at final concentration of 3.2 ng/ml and then returned to the cell incubator for 15 h. Plates were equilibrated to room temperature for 1 h prior to the addition of 25 μl of pNPP buffer (1M Diethanolamine pH 9.8, 0.5 mM MgCl2, 0.28M NaCl, 2 mg/ml pNPP) to each well of assay plates. The plates were covered to protect the reagents from light, and then incubated at room temperature for approximately 1 hour before reading them on an Ascent using a 405 nm single filter. Dose response curves were constructed from which pIC50 values were estimated.

[1] = Assay for brain penetrance; format: in vivo; settings: brain and plasma, rat, single intravenous dose 1 mg/kg, read-out: brain to plasma ratio
Procedure: Each rat received a single intravenous dose at a level of 1 mg/kg. The dose was formulated in 10% DMSO/50% PEG200/40% sterile water. Terminal blood samples were taken at 5 or 15 minutes after dosing, by cardiac puncture following anaesthesia with isofluorane. The brains were removed at the same time point.
The compounds were extracted from 20 μL plasma by protein precipitation using 120 μL acetonitrile containing an analogue compound as an internal standard. The filtered extracts were collected into a 96 well plate and were diluted with an equal volume of 10% acetonitrile containing 0.1% formic acid in water (v/v). The plate was then mixed on a plate shaker for at least 5 minutes before analysis by LC-MS/MS against a calibration line prepared in control plasma.
Each brain was weighed, then homogenised in 3 ml acetonitrile:water (10:90 v/v). The compounds were extracted from 200 μL of the resulting homogenate by protein precipitation using 600 μL acetonitrile containing an analogue compound as an internal standard. The extracts were centrifuged and 150 μl of each was filtered and transferred to a 96 well plate. The aliquot was diluted with 10% acetonitrile containing 0.1% formic acid in water (v/v). The plate was mixed on a plate shaker for at least 5 minutes before analysis by LC-MS/MS against a calibration line prepared in control brain homogenate.

glucocorticoid receptor = target: T2, glucocorticoid receptor (Homo sapiens, UniProt P04150); experiment: Glucocorticoid receptor binding assay (fluorescence polarisation); settings: competition with Alexa 555 fluorescently-labelled dexamethasone derivative, full length glucocorticoid receptor; read-out: glucocorticoid binding pIC50 (converted)
T2 construct: a partially purified full length glucocorticoid receptor
T2 sequence (P04150 1-777): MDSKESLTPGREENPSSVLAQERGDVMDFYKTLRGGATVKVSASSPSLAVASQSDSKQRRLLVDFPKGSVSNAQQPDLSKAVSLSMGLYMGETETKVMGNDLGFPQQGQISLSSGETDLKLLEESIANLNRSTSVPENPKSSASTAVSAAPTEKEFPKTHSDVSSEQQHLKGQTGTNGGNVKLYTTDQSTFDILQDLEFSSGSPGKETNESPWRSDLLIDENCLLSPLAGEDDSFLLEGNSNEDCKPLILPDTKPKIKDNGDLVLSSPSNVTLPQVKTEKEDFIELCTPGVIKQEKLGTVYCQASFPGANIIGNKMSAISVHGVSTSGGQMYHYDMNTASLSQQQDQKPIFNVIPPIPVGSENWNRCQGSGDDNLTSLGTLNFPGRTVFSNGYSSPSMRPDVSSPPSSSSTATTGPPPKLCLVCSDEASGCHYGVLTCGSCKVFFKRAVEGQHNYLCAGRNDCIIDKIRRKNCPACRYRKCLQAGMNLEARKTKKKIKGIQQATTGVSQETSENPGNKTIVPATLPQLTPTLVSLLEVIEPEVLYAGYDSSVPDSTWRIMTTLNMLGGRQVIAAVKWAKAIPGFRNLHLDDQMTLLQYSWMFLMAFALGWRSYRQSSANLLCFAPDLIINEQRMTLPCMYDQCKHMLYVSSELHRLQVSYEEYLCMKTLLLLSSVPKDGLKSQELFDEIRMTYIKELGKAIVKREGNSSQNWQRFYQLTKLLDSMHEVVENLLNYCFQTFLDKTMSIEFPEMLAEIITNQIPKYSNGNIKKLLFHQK
Procedure: Compounds were solvated and diluted in DMSO, and transferred directly into assay plates. Fluorescent dexamethasone and a partially purified full length glucocorticoid receptor were added to the plates, together with buffer components to stabilise the GR protein and incubated at room temperature for 2 hrs in the dark. Binding of each compound was assessed by analysing the displacement of fluorescent ligand by measuring the decrease in fluorescence polarisation signal from the mixture. Dose response curves were constructed from which pIC50 values were estimated.

CN(CC(O)(CNC(=O)c1cnn(-c2ccc(F)cc2)c1N)C(F)(F)F)C(=O)c1c(Cl)cccc1Cl (single isomer, unassigned) [Example 1 Enantiomer 1, 5-Amino-N-(2-{[[(2,6-dichlorophenyl)carbonyl](methyl)amino]methyl}-3,3,3-trifluoro-2-hydroxypropyl)-1-(4-fluorophenyl)-1H-pyrazole-4-carboxamide]
EC50 (progesterone receptor): > 1 µM | IC50 (NFκB): < 1 µM | Kp at 5 min [1]: ≥ 0.1 | IC50 (glucocorticoid receptor): ≤ 0.316 µM
